Measurements reported in patent US8541002B2, “Vaccine for treatment and prevention of herpes simplex virus infection” (Agenus Inc., priority 2003, dated 2013).
Where no end group is shown, it is not given here.

test: Turbidity assay for solubility of the peptides; assay type: physicochemical; settings: solubility of the antigenic peptides in water or Dimethyl Sulfoxide (DMSO)
Experimental: A number of antigenic peptides of the invention were synthesized by chemical synthesis as described in Section 5.1.1.
A turbidity assay was used to assess the solubility of the peptides. Turbidity assays used either a Varian Cary double-beam spectrophotometer, or a Molecular Devices Spectromax absorbance plate reader (for high throughput experiments). The spectrophotometer assay read every 2 nm between 340 nm and 360 nm, and averaged the values. Samples were analyzed in duplicate using a quartz micro-cuvette that holds about 200 uL. The plate reader assay used a 96-well plate format that read every 4 nm between 340 nm and 360 nm and averaged those values. Samples in this assay were run in triplicate.

Compound | Solubility
LSGIAVRLCYIAVVAGVVLVALRYEQEIQRRLFDL [UL53-2] | DMSO
ASSQSKPLATQPPVLALSNAPPRRVSPTRGRRRHT [UL01-3] | water
CSCC[C@H](NC(=O)[C@H](Cc1c[nH]c2ccccc12)NC(=O)[C@H](CO)NC(=O)[C@H](C)NC(=O)[C@H](Cc1c[nH]c2ccccc12)NC(=O)[C@H](Cc1c[nH]cn1)NC(=O)[C@H](Cc1ccc(O)cc1)NC(=O)[C@H](CC(C)C)NC(=O)[C@@H](NC(=O)[C@H](CO)NC(=O)[C@@H](NC(=O)[C@H](Cc1ccc(O)cc1)NC(=O)[C@H](C)NC(=O)[C@H](CC(C)C)NC(=O)[C@H](CC(C)C)NC(=O)[C@H](CCC(=O)O)NC(=O)[C@H](CO)NC(=O)[C@H](CC(C)C)NC(=O)[C@H](CCCNC(=N)N)NC(=O)[C@H](CC(C)C)NC(=O)[C@H](C)NC(=O)[C@@H](NC(=O)[C@H](CC(=O)O)NC(=O)[C@@H](NC(=O)[C@H](CO)NC(=O)[C@@H]1CCCN1C(=O)[C@H](CCCNC(=N)N)NC(=O)[C@H](CO)NC(=O)[C@@H]1CCCN1C(=O)[C@H](CC(=O)O)NC(=O)[C@H](C)N)[C@@H](C)O)[C@@H](C)O)C(C)C)C(C)C)C(=O)N[C@@H](CC(C)C)C(=O)N[C@@H](Cc1c[nH]c2ccccc12)C(=O)N[C@H](C(=O)N[C@@H](C)C(=O)O)[C@@H](C)O [UL46-2] | DMSO
ILSPGALAAIENYVRFSADRLLGLIHMQPLYSAPA [UL40-2] | water
RTLAVRGDASLCQLLFGHPVDAVILRQATRRPRIT [UL16-2] | water
CC(C)C[C@H](NC(=O)[C@H](CCCNC(=N)N)NC(=O)CNC(=O)[C@@H](NC(=O)[C@H](C)NC(=O)[C@H](C)NC(=O)[C@H](CS)NC(=O)[C@H](Cc1ccccc1)NC(=O)[C@@H](NC(=O)[C@H](CCCNC(=N)N)NC(=O)[C@H](CCCCN)NC(=O)[C@H](CC(N)=O)NC(=O)[C@H](Cc1ccccc1)NC(=O)CNC(=O)[C@H](C)NC(=O)[C@@H](NC(=O)[C@H](CCCNC(=N)N)NC(=O)[C@@H]1CCCN1C(=O)[C@@H](NC(=O)[C@H](Cc1c[nH]c2ccccc12)NC(=O)[C@@H]1CCCN1C(=O)[C@H](C)NC(=O)[C@@H](NC(=O)[C@@H]1CCCN1C(=O)[C@@H](N)CO)[C@@H](C)O)[C@@H](C)O)C(C)C)C(C)C)C(C)C)C(=O)N[C@@H](C)C(=O)N[C@@H](C)C(=O)N[C@H](C(=O)N[C@@H](Cc1c[nH]cn1)C(=O)N[C@@H](C)C(=O)N[C@@H](CCCNC(=N)N)C(=O)N[C@@H](CC(C)C)C(=O)N[C@@H](C)C(=O)N[C@@H](C)C(=O)N[C@H](C(=O)O)C(C)C)[C@@H](C)O [UL49-2] | water
CSCC[C@H](NC(=O)[C@H](CCCNC(=N)N)NC(=O)[C@H](Cc1c[nH]cn1)NC(=O)[C@@H](NC(=O)[C@H](CC(C)C)NC(=O)[C@H](CC(C)C)NC(=O)CNC(=O)[C@@H]1CCCN1C(=O)[C@H](CC(C)C)NC(=O)[C@H](CC(N)=O)NC(=O)[C@H](CCC(=O)O)NC(=O)[C@H](C)NC(=O)[C@H](CC(C)C)NC(=O)[C@H](CC(C)C)NC(=O)[C@H](C)NC(=O)[C@@H](NC(=O)[C@H](CCC(=O)O)NC(=O)[C@@H]1CCCN1C(=O)[C@@H](N)CC(C)C)[C@@H](C)O)C(C)C)C(=O)N[C@@H](C)C(=O)N[C@H](C(=O)N[C@@H](C)C(=O)N[C@@H](CC(C)C)C(=O)N1CCC[C@H]1C(=O)N[C@@H](CCC(=O)O)C(=O)N[C@H](C(=O)N1CCC[C@H]1C(=O)N[C@@H](CCC(=O)O)C(=O)N[C@@H](C)C(=O)N[C@@H](C)C(=O)N[C@@H](Cc1ccccc1)C(=O)N[C@@H](CCCNC(=N)N)C(=O)N[C@@H](CCC(=O)O)C(=O)N[C@@H](CCSC)C(=O)N[C@@H](CC(=O)O)C(=O)O)[C@@H](C)O)C(C)C [UL37-1] | DMSO
DRPSAYGTWVRVRVFRPPSLTIHPHAVLEGQPFKA [UL44-4] | water
VSPAHPQTPVGAGSRDLSLKGTPSDGMQPRGADTL [US11-1] | water
ARLRLEARLGHLVAAILEREQSLVAHALGYQLAFV [UL22-4] | water
RAYLVNPFLFAAGFLEDLSHSVFPADTQETTTRRA [UL01-1] | water
CSCC[C@H](NC(=O)[C@H](CC(C)C)NC(=O)[C@H](Cc1ccccc1)NC(=O)CNC(=O)[C@H](CC(C)C)NC(=O)[C@H](CC(N)=O)NC(=O)[C@H](CC(=O)O)NC(=O)[C@H](CCC(=O)O)NC(=O)[C@H](CO)NC(=O)[C@@H](NC(=O)[C@H](C)NC(=O)[C@H](CO)NC(=O)[C@H](Cc1ccccc1)NC(=O)[C@H](CO)NC(=O)[C@H](CC(=O)O)NC(=O)[C@H](Cc1ccc(O)cc1)NC(=O)[C@H](Cc1ccc(O)cc1)NC(=O)[C@H](CO)NC(=O)[C@H](Cc1c[nH]c2ccccc12)NC(=O)[C@@H](N)CCCNC(=N)N)C(C)C)C(=O)N[C@@H](Cc1c[nH]cn1)C(=O)N[C@@H](C)C(=O)N1CCC[C@H]1C(=O)N[C@@H](C)C(=O)N[C@@H](Cc1ccccc1)C(=O)N[C@@H](CCC(=O)O)C(=O)N[C@H](C(=O)N[C@@H](C)C(=O)NCC(=O)N[C@H](C(=O)N[C@@H](Cc1ccc(O)cc1)C(=O)N[C@@H](CC(C)C)C(=O)N[C@@H](CCCNC(=N)N)C(=O)N[C@@H](CC(C)C)C(=O)N[C@H](C(=O)O)C(C)C)[C@@H](C)O)[C@@H](C)O [US06-1] | DMSO
CC(C)C[C@H](NC(=O)[C@H](C)NC(=O)[C@H](CCCNC(=N)N)NC(=O)[C@@H](NC(=O)[C@@H](NC(=O)[C@H](Cc1c[nH]cn1)NC(=O)CNC(=O)CNC(=O)[C@H](CC(C)C)NC(=O)[C@H](CO)NC(=O)[C@H](CC(C)C)NC(=O)[C@H](CO)NC(=O)[C@H](CCCNC(=N)N)NC(=O)[C@@H]1CCCN1C(=O)[C@H](C)NC(=O)[C@@H](NC(=O)[C@H](CCCNC(=N)N)NC(=O)[C@@H]1CCCN1C(=O)[C@H](CC(N)=O)NC(=O)CN)[C@@H](C)O)[C@@H](C)O)C(C)C)C(=O)N[C@@H](CO)C(=O)N1CCC[C@H]1C(=O)N[C@H](C(=O)N1CCC[C@H]1C(=O)N1CCC[C@H]1C(=O)N[C@@H](Cc1c[nH]c2ccccc12)C(=O)N1CCC[C@H]1C(=O)NCC(=O)N[C@H](C(=O)N[C@@H](CC(=O)O)C(=O)N[C@@H](CC(=O)O)C(=O)N[C@@H](CCC(=O)O)C(=O)N[C@@H](CC(=O)O)C(=O)N[C@@H](CC(=O)O)C(=O)N[C@@H](CC(=O)O)C(=O)O)[C@@H](C)O)[C@@H](C)O [RL02-1] | water
TQDTACVHGELLARKRERFAAVINRFLDLHQILRG [UL33-2] | water
CC(C)C[C@H](NC(=O)[C@H](CO)NC(=O)[C@@H]1CCCN1C(=O)[C@H](CC(=O)O)NC(=O)[C@H](CS)NC(=O)[C@H](CC(=O)O)NC(=O)CNC(=O)[C@H](C)NC(=O)[C@@H]1CCCN1C(=O)[C@@H](N)CC(=O)O)C(=O)N[C@@H](Cc1c[nH]cn1)C(=O)N[C@H](C(=O)N[C@@H](CC(C)C)C(=O)N[C@@H](CC(C)C)C(=O)N[C@@H](CCCNC(=N)N)C(=O)N1CCC[C@H]1C(=O)N[C@H](C(=O)N[C@@H](CC(C)C)C(=O)N[C@@H](CC(C)C)C(=O)N1CCC[C@H]1C(=O)N[C@@H](CCCCN)C(=O)N[C@@H](CC(C)C)C(=O)N[C@@H](CC(C)C)C(=O)N[C@H](C(=O)N[C@@H](CCCNC(=N)N)C(=O)N[C@@H](C)C(=O)N1CCC[C@H]1C(=O)N[C@@H](Cc1ccccc1)C(=O)N[C@@H](CCCCN)C(=O)N[C@@H](CO)C(=O)NCC(=O)N[C@@H](C)C(=O)N[C@@H](C)C(=O)N[C@@H](C)C(=O)N[C@@H](C)C(=O)O)C(C)C)[C@@H](C)O)C(C)C [UL46-1] | water
CC[C@H](C)[C@H](NC(=O)[C@H](CC(C)C)NC(=O)[C@H](CO)NC(=O)[C@@H](NC(=O)[C@@H](NC(=O)[C@H](Cc1ccc(O)cc1)NC(=O)[C@H](CCCCN)NC(=O)[C@@H](NC(=O)[C@H](Cc1ccc(O)cc1)NC(=O)[C@H](CCCNC(=N)N)NC(=O)[C@H](Cc1c[nH]cn1)NC(=O)[C@H](CCC(=O)O)NC(=O)[C@@H](NC(=O)[C@H](CC(C)C)NC(=O)[C@H](CCC(=O)O)NC(=O)[C@H](C)NC(=O)[C@@H](NC(=O)[C@@H](N)[C@@H](C)O)[C@@H](C)CC)C(C)C)C(C)C)C(C)C)[C@@H](C)CC)C(=O)N[C@@H](CO)C(=O)N1CCC[C@H]1C(=O)N[C@@H](CCCCN)C(=O)N[C@@H](CCC(=O)O)C(=O)N[C@@H](CCCNC(=N)N)C(=O)NCC(=O)N1CCC[C@H]1C(=O)N[C@@H](Cc1c[nH]c2ccccc12)C(=O)N[C@H](C(=O)N[C@@H](CC(C)C)C(=O)N[C@@H](CC(C)C)C(=O)N[C@@H](CCCCN)C(=O)N[C@@H](CCCNC(=N)N)C(=O)N[C@@H](CC(C)C)C(=O)N1CCC[C@H]1C(=O)N[C@H](C(=O)N[C@@H](Cc1ccc(O)cc1)C(=O)O)[C@@H](C)CC)[C@@H](C)O [UL41-2] | water
VHSRVYNIIQLVLFHNNDQARRAYVARTINHPAIR [UL40-3] | water
DEAFPIEYVLRLMNDWADVPCNPYLRVQNTGVSVL [UL34-1] | DMSO
CSCC[C@H](NC(=O)[C@H](Cc1ccccc1)NC(=O)[C@H](C)NC(=O)CNC(=O)[C@@H](NC(=O)[C@H](Cc1ccccc1)NC(=O)[C@H](CCCNC(=N)N)NC(=O)[C@@H]1CCCN1C(=O)[C@H](CC(=O)O)NC(=O)[C@H](CCC(N)=O)NC(=O)[C@@H](NC(=O)[C@H](CO)NC(=O)[C@@H](NC(=O)CNC(=O)[C@@H](N)CCC(=O)O)C(C)C)[C@@H](C)O)C(C)C)C(=O)N[C@@H](C)C(=O)N[C@@H](C)C(=O)N[C@@H](CCCCN)C(=O)N[C@@H](C)C(=O)N[C@@H](C)C(=O)N[C@@H](Cc1c[nH]cn1)C(=O)N[C@@H](CC(C)C)C(=O)N[C@@H](CCC(=O)O)C(=O)N[C@@H](CC(C)C)C(=O)N[C@@H](CCC(=O)O)C(=O)N[C@@H](C)C(=O)N[C@@H](CCCNC(=N)N)C(=O)N[C@@H](CC(C)C)C(=O)N[C@@H](CCCCN)C(=O)N[C@@H](CO)C(=O)N[C@@H](CCCNC(=N)N)C(=O)N[C@@H](C)C(=O)N[C@@H](CCCNC(=N)N)C(=O)N[C@@H](CC(C)C)C(=O)N[C@@H](CCC(=O)O)C(=O)O [UL14-1] | water
